Numbered stars: 1 amine (or outer) side, 2 acyl side, 3 side chain; on linkers, the order of the positions; unused ones are H or OH. Square brackets hold non-standard residues; d marks the D form. Peptide text beside a SMILES is read from it. * marks the point of attachment. Sta = CC(C)C[C@H](N)[C@@H](O)CC(=O)O; Hydrocinnamoyl = O=C(CCc1ccccc1)*; NHPhenethyl = c1ccc(CCN*)cc1; Isobutyryl = CC(C)C(=O)*; Piperidide = C1CCN(*)CC1; Pyrrolidide = C1CCN(*)C1; Cbz = O=C(OCc1ccccc1)*; PhAc = O=C(Cc1ccccc1)*; CO = O=C([*:1])[*:2]; NHBn = c1ccc(CN*)cc1; Alloc = C=CCOC(=O)*; Bz = O=C(c1ccccc1)*; NHPh = c1ccc(N*)cc1; GABA = NCCCC(=O)O; Ms = CS(=O)(=O)*; NHiPr = CC(C)N*; NHPr = CCCN*
What was measured:
[1] = target: Plasmepsin V (Plasmodium falciparum (isolate 3D7)) (UniProt Q8I6Z5); test: Inhibition of Plasmodium falciparum plasmepsin V assessed as cleavage of wtKAHRP fluorogenic substrate at 1 uM
[2] = target: Plasmepsin V (Plasmodium falciparum (isolate 3D7), UniProt Q8I6Z5); test: Inhibition of Plasmodium falciparum plasmepsin V assessed as cleavage of wtKAHRP fluorogenic substrate
[3] = target: Cathepsin D (Homo sapiens, UniProt P07339); test: Inhibition of human cathepsin D assessed as cleavage of wtKAHRP fluorogenic substrate
[4] = target: Beta-secretase 1 (Homo sapiens, UniProt P56817); test: Inhibition of human BACE1 assessed as cleavage of TRF substrate
Sequence of Beta-secretase 1 (P56817 whole entry): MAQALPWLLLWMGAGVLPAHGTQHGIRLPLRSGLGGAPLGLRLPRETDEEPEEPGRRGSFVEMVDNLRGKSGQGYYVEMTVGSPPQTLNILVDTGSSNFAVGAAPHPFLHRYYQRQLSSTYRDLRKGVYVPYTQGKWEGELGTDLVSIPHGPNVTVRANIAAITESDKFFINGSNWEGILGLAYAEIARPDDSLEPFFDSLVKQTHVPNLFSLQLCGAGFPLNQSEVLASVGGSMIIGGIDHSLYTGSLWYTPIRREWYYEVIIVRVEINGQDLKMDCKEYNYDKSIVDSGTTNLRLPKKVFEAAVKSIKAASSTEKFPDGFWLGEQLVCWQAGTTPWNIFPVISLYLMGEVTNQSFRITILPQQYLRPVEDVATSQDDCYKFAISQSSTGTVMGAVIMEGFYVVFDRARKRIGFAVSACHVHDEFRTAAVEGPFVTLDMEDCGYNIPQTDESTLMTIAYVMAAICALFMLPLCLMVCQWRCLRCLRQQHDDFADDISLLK

Sequence of Plasmepsin V (Plasmodium falciparum (isolate 3D7)) (Q8I6Z5 whole entry, looked up): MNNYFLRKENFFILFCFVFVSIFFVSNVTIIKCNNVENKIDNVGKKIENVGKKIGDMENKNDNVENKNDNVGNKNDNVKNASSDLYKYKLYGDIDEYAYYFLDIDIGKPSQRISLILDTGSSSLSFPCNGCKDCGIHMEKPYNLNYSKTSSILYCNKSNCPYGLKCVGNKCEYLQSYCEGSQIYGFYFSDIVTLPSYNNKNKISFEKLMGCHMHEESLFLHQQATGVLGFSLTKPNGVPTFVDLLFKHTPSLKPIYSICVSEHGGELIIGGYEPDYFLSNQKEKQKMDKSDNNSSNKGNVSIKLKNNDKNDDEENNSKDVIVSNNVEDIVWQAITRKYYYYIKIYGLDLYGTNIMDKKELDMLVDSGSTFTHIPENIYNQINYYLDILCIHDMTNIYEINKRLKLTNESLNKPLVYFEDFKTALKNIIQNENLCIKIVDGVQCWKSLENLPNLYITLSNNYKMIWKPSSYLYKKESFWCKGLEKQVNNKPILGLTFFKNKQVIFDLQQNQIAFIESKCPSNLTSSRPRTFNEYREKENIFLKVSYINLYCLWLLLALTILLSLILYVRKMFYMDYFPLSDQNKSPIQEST
Sequence of Plasmepsin V (Q8I6Z5 whole entry): as the sequence (Q8I6Z5 whole entry, looked up) above
Sequence of Cathepsin D (P07339 65-162 limits assumed): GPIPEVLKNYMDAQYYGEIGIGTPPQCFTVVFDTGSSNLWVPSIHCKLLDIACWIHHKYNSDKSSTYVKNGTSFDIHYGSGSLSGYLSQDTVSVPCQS
Sequence of Cathepsin D (P07339 169-412 limits assumed): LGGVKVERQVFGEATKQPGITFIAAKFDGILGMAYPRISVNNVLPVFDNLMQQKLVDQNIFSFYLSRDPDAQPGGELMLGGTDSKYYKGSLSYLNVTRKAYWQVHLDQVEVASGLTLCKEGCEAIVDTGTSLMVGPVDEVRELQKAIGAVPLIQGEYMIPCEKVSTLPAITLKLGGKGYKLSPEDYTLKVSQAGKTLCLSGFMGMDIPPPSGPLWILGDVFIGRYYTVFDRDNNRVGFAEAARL

| Structure (SMILES) | inhibition [1] [%] | IC50 [2] [µM] | IC50 [3] [µM] | IC50 [4] [µM] |
| --- | --- | --- | --- | --- |
| CC(=O)N[C@@H](CCCNC(=N)N)C(=O)N[C@@H](C)C(=O)N[C@@H](CC(C)C)[C@@H](O)CC(=O)NCCc1ccccc1 (Ac-Arg-Ala-[Sta]-NHPhenethyl) | 42 | – | – | – |
| CC(C)C[C@H](NC(=O)[C@H](C)NC(=O)[C@H](CCCNC(=N)N)NC(=O)OCc1ccccc1)[C@@H](O)CC(=O)NC1CCCc2ccccc21 (stereo partly specified) | 51 | – | – | – |
| CC(C)C[C@H](NC(=O)[C@H](C)NC(=O)[C@H](CCCNC(=N)N)NC(=O)OCc1ccccc1)[C@@H](O)CC(=O)N1CCC(c2ccccc2)CC1 | 13 | – | – | – |
| CC(C)C[C@H](NC(=O)[C@H](C)NC(=O)[C@H](CCCNC(=N)N)NC(=O)OCc1ccccc1)[C@@H](O)CC(=O)N(C)CCc1ccccc1 | 11 | – | – | – |
| CCCNC(=O)C[C@H](O)[C@H](CC(C)C)NC(=O)[C@H](C)NC(=O)[C@H](CCCNC(=N)N)NC(=O)OCc1ccccc1 (Cbz-Arg-Ala-[Sta]-NHPr) | 56 | – | – | – |
| CC(C)C[C@H](NC(=O)[C@H](C)NC(=O)[C@H](CCCCNC(=N)N)NC(=O)OCc1ccccc1)[C@@H](O)CC(=O)NC1CCCCC1 | – | > 20 | – | – |
| CC(C)CNC(=O)C[C@H](O)[C@H](CC(C)C)NC(=O)[C@H](C)NC(=O)[C@H](CCCNC(=N)N)NC(=O)OCc1ccccc1 | 49 | – | – | – |
| CC(C)C[C@H](NC(=O)[C@H](C)NC(=O)[C@H](CCCNC(=N)N)NC(=O)OCc1ccccc1)[C@@H](O)CC(=O)NCCc1ccc(Cl)cc1 | – | 0.348 | > 100 | > 100 |
| CC(C)C[C@H](NC(=O)[C@H](C)NC(=O)[C@H](CCCNC(=N)N)NC(=O)OCc1ccccc1)[C@@H](O)CC(=O)N1CCCC1 (Cbz-Arg-Ala-[Sta]-Pyrrolidide) | 13 | – | – | – |
| CC(C)C[C@H](NC(=O)[C@H](C)NC(=O)[C@H](CCc1ccccc1)NC(=O)OCc1ccccc1)[C@@H](O)CC(=O)NC1CCCCC1 | – | > 20 | 0.043 | > 100 |
| CC(C)C[C@H](NC(=O)[C@H](C)NC(=O)[C@H](CCCNC(=N)N)NC(=O)Cc1ccccc1)[C@@H](O)CC(=O)NCCc1ccccc1 (PhAc-Arg-Ala-[Sta]-NHPhenethyl) | 59 | – | – | – |
| CC(C)C[C@H](NC(=O)[C@H](C)NC(=O)[C@H](CCCNC(=N)N)NC(=O)N(C)C)[C@@H](O)CC(=O)NCCc1ccccc1 ({NMe2-CO}-Arg-Ala-[Sta]-NHPhenethyl) | 65 | – | – | – |
| CC[C@H](C)[C@H](NC(=O)[C@H](C)NC(=O)[C@H](CCCNC(=N)N)NC(=O)OCc1ccccc1)[C@@H](O)CC(=O)NC1CCCCC1 | – | > 20 | – | – |
| CC(C)C[C@H](NC(=O)[C@H](C)NC(=O)[C@H](CCCNC(=N)N)NC(=O)OCc1ccccc1)[C@@H](O)CC(=O)N(C)CCc1ccc(Cl)cc1 | 20 | 2.01 | > 100 | > 100 |
| C[C@H](NC(=O)[C@H](CCCNC(=N)N)NC(=O)OCc1ccccc1)C(=O)N[C@@H](Cc1ccccc1)[C@@H](O)CC(=O)NC1CCCCC1 | – | > 20 | – | – |
| CC(C)C[C@H](NC(=O)[C@H](C)NC(=O)[C@H](CCCNC(=N)N)NC(=O)OCc1ccccc1)[C@@H](O)CC(=O)N(C)C (Cbz-Arg-Ala-[Sta]-NMe2) | 32 | – | – | – |
| CC(C)C[C@H](NC(=O)[C@H](C)NC(=O)[C@H](CCCNC(=N)N)NC(=O)OCc1ccccc1)[C@@H](O)CC(=O)NCCc1ccccc1 (Cbz-Arg-Ala-[Sta]-NHPhenethyl) | 79 | 0.622 | 29 | > 100 |
| CC(C)C[C@H](NC(=O)[C@H](C)NC(=O)[C@H](CCCNC(=N)N)NC(=O)c1ccccc1)[C@@H](O)CC(=O)NCCc1ccccc1 (Bz-Arg-Ala-[Sta]-NHPhenethyl) | 62 | 0.774 | > 100 | > 100 |
| CC(=O)N[C@@H](CCCNC(=N)N)C(=O)N[C@@H](C)C(=O)N[C@@H](CC(C)C)[C@@H](O)CC(=O)NC1CCCCC1 | – | 0.967 | > 100 | > 100 |
| CC(C)C[C@H](NC(=O)[C@H](C)NC(=O)[C@H](CCCNC(=N)N)NC(=O)NCc1ccccc1)[C@@H](O)CC(=O)NCCc1ccccc1 ({NHBn-CO}-Arg-Ala-[Sta]-NHPhenethyl) | 32 | – | – | – |
| CC(C)C[C@H](NC(=O)[C@H](C)NC(=O)[C@H](CCCNC(=N)N)NS(C)(=O)=O)[C@@H](O)CC(=O)NCCc1ccccc1 (Ms-Arg-Ala-[Sta]-NHPhenethyl) | 53 | – | – | – |
| CC(C)C[C@H](NC(=O)[C@H](C)NC(=O)[C@H](CCCNC(=N)N)NC(=O)OCc1ccccc1)[C@@H](O)CC(=O)NC(C)c1ccccc1 (mixture of isomers) | 56 | 0.569 | > 100 | > 100 |
| CC(C)C[C@H](NC(=O)[C@H](C)NC(=O)[C@H](CCCNC(=N)N)NC(=O)OCc1ccccc1)[C@@H](O)CC(=O)N(C)C(C)c1ccccc1 (stereo partly specified) | 30 | – | – | – |
| CC(C)C[C@H](NC(=O)[C@H](C)NC(=O)[C@H](CCCNC(=N)N)NS(=O)(=O)C1CC1)[C@@H](O)CC(=O)NCCc1ccccc1 | 80 | – | – | – |
| CC(C)CCNC(=O)C[C@H](O)[C@H](CC(C)C)NC(=O)[C@H](C)NC(=O)[C@H](CCCNC(=N)N)NC(=O)OCc1ccccc1 | 65 | – | – | – |

| Structure (SMILES) | inhibition [1] [%] | IC50 [2] [µM] | IC50 [3] [µM] | IC50 [4] [µM] |
| --- | --- | --- | --- | --- |
| CC(C)C[C@H](NC(=O)[C@H](C)NC(=O)[C@H](CCCNC(=N)N)NC(=O)OCc1ccccc1)[C@@H](O)CC(=O)NC1CCC1 | 56 | – | – | – |
| CCNC(=O)N[C@@H](CCCNC(=N)N)C(=O)N[C@@H](C)C(=O)N[C@@H](CC(C)C)[C@@H](O)CC(=O)NCCc1ccccc1 ({NHEt-CO}-Arg-Ala-[Sta]-NHPhenethyl) | 26 | – | – | – |
| CC(C)C[C@H](NC(=O)[C@H](C)NC(=O)[C@H](CCCNC(=N)N)NC(=O)C(C)C)[C@@H](O)CC(=O)NCCc1ccccc1 (Isobutyryl-Arg-Ala-[Sta]-NHPhenethyl) | 49 | – | – | – |
| CC(C)C[C@H](NC(=O)[C@H](C)NC(=O)[C@H](CCCNC(=N)N)NC(=O)Nc1ccccc1)[C@@H](O)CC(=O)NCCc1ccccc1 ({NHPh-CO}-Arg-Ala-[Sta]-NHPhenethyl) | 53 | – | – | – |
| CC(C)C[C@H](NC(=O)[C@H](C)NC(=O)[C@H](CCCNC(=N)N)NC(=O)NC1CCCC1)[C@@H](O)CC(=O)NCCc1ccccc1 | 41 | – | – | – |
| CC(=O)N[C@@H](CCCNC(=N)N)C(=O)N[C@@H](C)C(=O)N[C@@H](CC(C)C)[C@@H](O)CC(=O)N[C@@H](C)C(N)=O (Ac-RA[Sta]A-NH2) | – | 0.613 | > 100 | > 100 |
| CC(C)[C@H](NC(=O)[C@H](C)NC(=O)[C@H](CCCNC(=N)N)NC(=O)OCc1ccccc1)[C@@H](O)CC(=O)NC1CCCCC1 | – | > 20 | – | – |
| CC(C)C[C@H](NC(=O)[C@H](C)NC(=O)[C@H](CCCNC(=N)N)NS(=O)(=O)Cc1ccccc1)[C@@H](O)CC(=O)NCCc1ccccc1 | 89 | 0.625 | > 100 | > 100 |
| CC(C)C[C@H](NC(=O)[C@H](C)NC(=O)[C@H](CCCNC(=N)N)NC(=O)OCc1ccccc1)[C@@H](O)CC(=O)NC1CC1 | 55 | – | – | – |
| CC(C)C[C@H](NC(=O)[C@H](Cc1ccccc1)NC(=O)[C@H](CCCNC(=N)N)NC(=O)OCc1ccccc1)[C@@H](O)CC(=O)NC1CCCCC1 | – | 0.23 | 4.8 | > 100 |
| CC(C)C[C@H](NC(=O)[C@H](C)NC(=O)[C@H](CCCNC(=N)N)NC(=O)C1CCCCC1)[C@@H](O)CC(=O)NCCc1ccccc1 | 43 | – | – | – |
| CC(C)COC(=O)N[C@@H](CCCNC(=N)N)C(=O)N[C@@H](C)C(=O)N[C@@H](CC(C)C)[C@@H](O)CC(=O)NCCc1ccccc1 | 47 | – | – | – |
| CC(=O)N[C@@H](CCCNC(=N)N)C(=O)N[C@@H](C)C(=O)N[C@@H](CC(C)C)[C@@H](O)CC(=O)N[C@@H](CCC(N)=O)C(N)=O (Ac-RA[Sta]Q-NH2) | – | 0.556 | > 100 | > 100 |
| CC(C)C[C@H](NC(=O)[C@H](C)NC(=O)[C@H](CCCNC(=N)N)NC(=O)OCc1ccccc1)[C@@H](O)CC(=O)NC(C)C (Cbz-Arg-Ala-[Sta]-NHiPr) | 42 | – | – | – |
| CC(C)C[C@H](NC(=O)[C@H](C)NC(=O)[C@H](CCCNC(=N)N)NC(=O)OCc1ccccc1)[C@@H](O)CC(=O)N(C)Cc1ccccc1 | 30 | – | – | – |
| CC(=O)N[C@@H](CCCNC(=N)N)C(=O)N[C@@H](C)C(=O)N[C@@H](CC(C)C)[C@@H](O)CC(=O)NCCCC(N)=O (Ac-RA[Sta][GABA]-NH2) | – | 0.865 | > 100 | > 100 |
| C=CCOC(=O)N[C@@H](CCCNC(=N)N)C(=O)N[C@@H](C)C(=O)N[C@@H](CC(C)C)[C@@H](O)CC(=O)NCCc1ccccc1 (Alloc-Arg-Ala-[Sta]-NHPhenethyl) | 35 | – | – | – |
| CC(C)C[C@H](NC(=O)[C@H](C)NC(=O)[C@H](CCCCN)NC(=O)OCc1ccccc1)[C@@H](O)CC(=O)NC1CCCCC1 | – | > 20 | > 100 | > 100 |
| CC(C)C[C@H](NC(=O)[C@H](C)NC(=O)[C@H](CCCNC(=N)N)NC(=O)OCc1ccccc1)[C@@H](O)CC(=O)NC1CCCC1 | 52 | – | – | – |
| CC(C)C[C@H](NC(=O)[C@H](C)NC(=O)[C@H](CCCNC(=N)N)NC(=O)OCc1ccccc1)[C@@H](O)CC(=O)NCC1CCCCC1 | 63 | – | – | – |
| CC(C)C[C@H](NC(=O)[C@H](C)NC(=O)[C@H](CCCNC(=N)N)NC(=O)CCc1ccccc1)[C@@H](O)CC(=O)NCCc1ccccc1 (Hydrocinnamoyl-Arg-Ala-[Sta]-NHPhenethyl) | 68 | – | – | – |
| CC(C)C[C@H](NC(=O)[C@H](C)NC(=O)[C@H](CCCNC(=N)N)NC(=O)OCc1ccccc1)[C@@H](O)CC(=O)N1CCCCC1 (Cbz-Arg-Ala-[Sta]-Piperidide) | 27 | – | – | – |
| CC(C)C[C@H](NC(=O)[C@H](C)NC(=O)[C@H](CCCNC(=N)N)NC(=O)OCc1ccccc1)[C@@H](O)CC(=O)NCCCc1ccccc1 | 75 | – | – | – |
| CC(C)C[C@H](NC(=O)[C@H](C)NC(=O)[C@H](CCCNC(=N)N)NS(=O)(=O)CCc1ccccc1)[C@@H](O)CC(=O)NCCc1ccccc1 | 78 | – | – | – |
| CC(C)C[C@H](NC(=O)[C@H](C)NC(=O)[C@H](CCCNC(=N)N)NC(=O)OCc1ccccc1)[C@@H](O)CC(=O)N1CCc2ccccc2C1 | 45 | – | – | – |

— ChEMBL document CHEMBL3352063, “Transition state mimetics of the Plasmodium export element are potent inhibitors of Plasmepsin V from P. falciparum and P. vivax” (J Med Chem, 2014)
